According to article PMC12284848, “Safe and Efficient Intracellular Release of SN38 via Lysosomal-Responsive SN38‑G Loaded Liposomes” (ACS Applied Bio Materials, 2025):
pIC50: −log10 of the molar value. In brackets after ≈: the same amount, converted by molar mass.

Legend:
[1] = tested on: lung adenocarcinoma (CL1-5); design: method as in ref 1 (SI); settings: CL1-5-inoculated mice, free prodrug; ref 1 (SI); cited from earlier work
MCF-7 [2] = experiment: Cell proliferation assay (CCK-8), MCF-7; format: cell-based, human
Experimental: Cells were seeded at a density of five thousand cells per well in 96-well plates and left to incubate overnight. Triplicate samples of free SN38, free SN38-G, and SN38-G liposomes were added at various dilutions and incubated for 24 h. CCK-8 stock solution was thawed at 37 °C in a water bath, 10 μL was added to each well, and plates were placed in the incubator for up to 4 h before measuring the absorbance at 450 nm using a microplate reader. Inhibition of cell proliferation was determined as 2 ″%ofinhibitioncomparedtocontrol^″=absorbanceat450nm(sample)×100/Absorbanceat450nm(control)
Sequential Esterification, Hydrolysis, Enzymatic Digestion, and Biological Activity Assessment of SN38-G to SN38. Commercial SN38-G was esterified in methanol or ethanol using sulfuric acid (H₂SO₄) and DMSO, following the procedure detailed in the Methods section under Synthesis of amphiphilic SN38-Gmet and SN38-Geth from SN38-G. The formation of the esters was monitored by analytical HPLC. For analysis, 2 µL of the reaction mixture was diluted in 248 µL of HPLC mobile phase, and 2.5 µL was injected with the fluorescence detector set at an excitation/emission wavelength of 375/430 nm. Hydrolysis of SN38-Gmet and SN38-Geth was carried out at 70 °C in 10 mM HEPES buffer, adjusted to pH 8. Samples were taken at 0, 5, 30, and 60 minutes, diluted in HPLC mobile phase (70% methanol, 25 mM citric acid, pH 3), and incubated at 70 °C for 10 minutes before injection. To generate active SN38, SN38-G was enzymatically cleaved by beta-glucuronidase following pH adjustment to 7 with phosphate buffer. The biological activity of the resulting SN38 was evaluated in an in-vitro cytotoxicity assay using human MCF-7 breast cancer cells, in comparison to commercial SN38. Cells were seeded at 5,000 cells per well in 96-well plates and incubated overnight. Triplicate samples of either commercial SN38 or SN38 generated from SN38-G were added at various dilutions and incubated for 24 hours. Afterward, 10 µL of CCK-8 solution (pre-warmed to 37 °C) was added to each well, and the plates were returned to the incubator for up to 4 hours. Absorbance was then measured at 450 nm using a microplate reader. Cell proliferation inhibition was calculated as: % inhibition = [Abs₄₅₀(sample) / Abs₄₅₀(control)] × 100 .
Cytotoxicity Assay in Cancerous and Non -Cancerous Cell Lines. […]
For the cytotoxicity assay cells were seeded at a density of 5,000 cells per well in 96 -well plates and allowed to adhere overnight. […] Absorbance at 450 nm was measured using a microplate reader. Cell viability was calculated as a percentage of untreated control cells. […]

MDA-MB-231 [3] = experiment: Cellular regeneration of SN38 from SN38-G liposomes, MDA-MB-231; format: cell-based; settings: 100 μM inhibitor, 2 μM SN38-G liposomes
MCF-7 [4] = experiment: Cellular regeneration of SN38 from SN38-G liposomes, MCF-7; format: cell-based, human; settings: 100 μM inhibitor, 2 μM SN38-G liposomes
physchem [5] = settings: for solubility at 24 h: pH 6, aqueous buffer, thermodynamic from solid, water solubility; for water solubility: 24 h, pH 6
Experimental: Water solubility tests were conducted in a pH 6 buffer (Figure b) to prevent the hydrolysis of the ester bond.
(§1) We added SN38, SN38-G, SN38-G^met, and SN38-G^eth in 10 mM MES pH 6 until it reached saturation and stopped dissolving. Saturated solutions were kept under agitation at room temperature for 24 h and centrifuged at 20,000g for 30 min at 24 °C. Analytical HPLC was then used to quantify the supernatants. The partitioning between 1-octanol and water was determined in 500 μL of 10 mM MES at pH 6 and 500 μL of 1-octanol. […] We allowed equilibration between the 2 phases for 24 h at room temperature under constant shaking. After this, the tubes were centrifuged at 20,000g for 30 min at 24 °C, and samples from each phase were analyzed by analytical HPLC. Using 70% methanol mobile phase conveniently dissolves 1-octanol, ensuring precise estimation of drugs’ quantities.

MDA-MB-231 [6] = experiment: Cell proliferation assay (CCK-8), MDA-MB-231; format: cell-based
Experimental: Cells were seeded at a density of five thousand cells per well in 96-well plates and left to incubate overnight. […] Inhibition of cell proliferation was determined as 2 ''%[…]^''=absorbanceat450nm(sample)×100/Absorbanceat450nm(control)

physchem [7] = settings: for logP at 24 h: pH 6, Log P
Experimental: The log P, defined here by partitioning between 1-octanol and pH 6 buffer (Figure c), was measured to determine compound affinity for organic phases such as the lipid bilayer.
as §1

beta-glucuronidase = experiment: Enzymatic digestion of SN38-G to SN38 by beta-glucuronidase; format: biochemical; settings: 37 °C
[8] = Drug stability: retention in liposomes on dialysis in 0.9% NaCl with 10% FBS at 37 °C; format: physicochemical; settings: dialysis 0.9% NaCl with 10% FBS, over 15 days
Experimental: This stability is consistent with the physicochemical properties of SN38-G and its intraliposomal complexation with calcium, which limits membrane permeability.
We diluted SN38-G liposomes at 1 mg/mL of phospholipids in 2 mL of 0.9% NaCl, complemented with 10% FBS, before transferring to dialysis membrane (Visking Tubing, diameter 15.9 mm, molecular weight 12,000–14,000). We ran the dialysis at 37 °C in the dark against 2 L, to which we added 0.02% sodium azide to prevent bacterial growth, under constant stirring. Samples of 2 μL of liposomes were taken at different intervals and diluted in 248 μL of HPLC mobile phase (70% methanol, […], pH 3), lysed for 10 min at 70 °C, and injected (Volume = 2.5 μL) in the C18 reverse phase HPLC system to analyze the total remaining amount of encapsulated SN38-G.

[9] = Alkaline hydrolysis of SN38-G esters back to SN38-G (10 mM HEPES pH 8, 70 °C, HPLC); format: physicochemical; settings: alkaline conditions (10 mM HEPES pH 8), after 1 h
Experimental: Accordingly, we formed a loadable amphiphilic SN38-G by esterification in excess alcohol at elevated temperatures using a sulfuric acid (H2SO4) catalyst. Esterification was performed in either methanol or ethanol, resulting in a methylester (SN38-G^met) and an ethylester (SN38-G^eth). Within 12 h, over 95% of SN38-G was esterified to SN38-G^met and SN38-G^eth (Figure a). Both esters are expected to have different levels of amphiphilicity due to their respective ester length, which might influence their loading behavior. We then tested the reversibility of the esterification to regenerate hydrophilic SN38-G through alkaline hydrolysis, which is a crucial step to ensure proper retention after loading. The hydrolysis rates of SN38-G^met and SN38-G^eth under alkaline conditions at 70 °C, which simulates the elevated pH compartment of liposomes during loading, were adequate. After 1 h, 96.1% (±2.6) of SN38-G^met and 95.5% (±2.1) of SN38-G^eth were hydrolyzed back to SN38-G (Figure b). The hydrolysis duration aligns with the typical incubation time between drugs and liposomes during loading. […]
Hydrolysis of SN38-G^met and SN38-G^eth was performed in 10 mM HEPES adjusted to pH 8 to simulate the alkaline internal compartment of the liposomes during drug loading. We monitored the reaction at 70 °C and took samples at 0, 5, 30, and 60 min of incubation time. […]

[10] = tested on: ovarian cancer model (OVCAR-3); design: method as in ref 7 (SI); settings: equitoxic dose; ref 7 (SI); cited from earlier work

In the case of “9-aminocamptothecin glucuronide [9AC glucuronide]”, the mice cured [1] is given as “Up to 85%”.

With `CCc1c2c(nc3ccc(OC(=O)N4CCC(N5CCCCC5)CC4)cc13)-c1cc3c(c(=O)n1C2)COC(=O)[C@]3(O)CC` [CPT-11] the cytotoxicity (MCF-7 [2]; MCF-7, 24 h, CCK-8) was “low cytotoxicity”.

In the case of `O=C(O)[C@@H](O)[C@H]1OC(=O)[C@H](O)[C@H]1O` [D-saccharic acid 1,4-lactone], the “effect on production of SN38 in cells” value (MDA-MB-231 [3]) was “effectively suppressed” and the “effect on production of SN38 in cells” value (MCF-7 [4]) was “effectively suppressed”.

With `CCc1c2c(nc3ccc(O)cc13)-c1cc3c(c(=O)n1C2)COC(=O)[C@]3(O)CC` [SN38, 7-ethyl-10-hydroxycamptothecin] the pIC50 (MCF-7 [2]; Homo sapiens, MCF7, MCF-7, 24 h, CCK-8) was 8.24, the “in vitro cytotoxicity of SN38 regenerated from reformed SN38-G” value (MCF-7 [2]; SN38 made by esterification, hydrolysis and beta-glucuronidase digestion of SN38-G, MCF-7, 24 h) was “comparable to that of a commercial SN38 standard” and the solubility at 24 h (physchem [5]) was about 7.45 µg/mL (≈ 0.019 mM). The pIC50 (MDA-MB-231 [6]; Homo sapiens, MDA-MB-231, 24 h, CCK-8) was 7.62, the “higher affinity for the organic phase” value (physchem [7]; 1-octanol vs pH 6 buffer) was 53 fold and the logP at 24 h (physchem [7]) was 1.73.

With `CCc1c2c(nc3ccc(O[C@@H]4O[C@H](C(=O)O)[C@@H](O)[C@H](O)[C@H]4O)cc13)-c1cc3c(c(=O)n1C2)COC(=O)[C@]3(O)CC` [SN38-G, SN38 glucuronide] the “cleavage by beta-glucuronidase to SN38” value (beta-glucuronidase) was “rapidly cleaved”, the “reduction of toxicity versus SN38” value (MCF-7 [2]; MCF-7) was 728.5 fold and the water solubility (physchem [5]) was 62800 µg/mL (≈ 110 mM). For the same compound, the solubility at 24 h (physchem [5]) was about 59500 µg/mL (≈ 105 mM), the retention within liposomes [8] was “excellent retention” and the “reduction of toxicity versus SN38” value (MDA-MB-231 [6]; MDA-MB-231) was 550.5 fold. The “higher affinities for the aqueous phase” value (physchem [7]; 1-octanol vs pH 6 buffer) was “over 775 fold” and the logP at 24 h (physchem [7]) was -2.89.

In the case of `CCOC(=O)[C@H]1O[C@@H](Oc2ccc3nc4c(c(CC)c3c2)Cn2c-4cc3c(c2=O)COC(=O)[C@]3(O)CC)[C@H](O)[C@@H](O)[C@@H]1O` [SN38-G^eth], the water solubility (physchem [5]) was 1500 µg/mL (≈ 2.51 mM), the solubility at 24 h (physchem [5]) was about 1500 µg/mL (≈ 2.51 mM) and the retention within liposomes [8] was “rapid clearance”. For the same compound, the “hydrolyzed back to SN38-G” value [9] was 95.5% and the logP at 24 h (physchem [7]) was 0.66.

In the case of `CCc1c2c(nc3ccc(O[C@@H]4O[C@H](C(=O)OC)[C@@H](O)[C@H](O)[C@H]4O)cc13)-c1cc3c(c(=O)n1C2)COC(=O)[C@]3(O)CC` [SN38-G^met], the water solubility (physchem [5]) was 3860 µg/mL (≈ 6.63 mM), the solubility at 24 h (physchem [5]) was about 3860 µg/mL (≈ 6.63 mM) and the retention within liposomes [8] was “rapid clearance”. The “hydrolyzed back to SN38-G” value [9] was 96.1% and the logP at 24 h (physchem [7]) was 0.07.

For `COc1cccc2c1C(=O)c1c(O)c3c(c(O)c1C2=O)C[C@@](O)(C(=O)CO)C[C@@H]3O[C@H]1C[C@H](N)[C@H](O)[C@H](C)O1` [doxorubicin], the tumor inhibition [10] is listed as 56%.
